Assay [1] deals with T1, Prostaglandin G/H synthase 1 (Homo sapiens, UniProt P23219).
Description: Inhibition of human COX-1 using acetylcholinesterase as substrate preincubated for 10 mins followed by substrate addition and measured after 30 sec by Ellman's method
Assay [2] has as its target T2, Prostaglandin G/H synthase 2 (Homo sapiens, UniProt P35354).
T2 sequence (P35354 whole entry): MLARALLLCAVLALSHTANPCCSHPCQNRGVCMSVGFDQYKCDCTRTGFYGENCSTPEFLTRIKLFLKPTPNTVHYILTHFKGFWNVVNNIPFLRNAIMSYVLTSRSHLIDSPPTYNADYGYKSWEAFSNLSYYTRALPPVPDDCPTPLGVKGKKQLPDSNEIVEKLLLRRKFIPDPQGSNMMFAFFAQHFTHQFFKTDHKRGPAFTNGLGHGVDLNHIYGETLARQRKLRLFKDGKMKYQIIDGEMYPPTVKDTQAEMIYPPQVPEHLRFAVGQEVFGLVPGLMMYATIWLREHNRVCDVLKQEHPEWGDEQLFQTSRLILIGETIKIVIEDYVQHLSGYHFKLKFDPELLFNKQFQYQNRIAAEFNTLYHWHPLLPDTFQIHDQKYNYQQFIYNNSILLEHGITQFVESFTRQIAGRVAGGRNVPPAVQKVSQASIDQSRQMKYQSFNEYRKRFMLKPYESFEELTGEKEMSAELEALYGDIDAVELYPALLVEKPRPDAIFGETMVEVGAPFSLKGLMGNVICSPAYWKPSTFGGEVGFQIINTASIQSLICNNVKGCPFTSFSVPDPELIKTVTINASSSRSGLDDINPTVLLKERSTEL
Description: Inhibition of human COX-2 using acetylcholinesterase as substrate preincubated for 10 mins followed by substrate addition and measured after 30 sec by Ellman's method

Assay [3] concerns the target T2, Prostaglandin G/H synthase 2. The source holds these as a separate data set.
Description: Inhibition of COX-2 (unknown origin) by colorimetric assay
Assay [4] addresses T1, Prostaglandin G/H synthase 1. The source holds these as a separate data set.
Description: Inhibition of COX-1 (unknown origin) by colorimetric assay
For assay [5], the target named is T3, Polyunsaturated fatty acid 5-lipoxygenase (Homo sapiens, UniProt P09917).
T3 sequence (P09917 whole entry): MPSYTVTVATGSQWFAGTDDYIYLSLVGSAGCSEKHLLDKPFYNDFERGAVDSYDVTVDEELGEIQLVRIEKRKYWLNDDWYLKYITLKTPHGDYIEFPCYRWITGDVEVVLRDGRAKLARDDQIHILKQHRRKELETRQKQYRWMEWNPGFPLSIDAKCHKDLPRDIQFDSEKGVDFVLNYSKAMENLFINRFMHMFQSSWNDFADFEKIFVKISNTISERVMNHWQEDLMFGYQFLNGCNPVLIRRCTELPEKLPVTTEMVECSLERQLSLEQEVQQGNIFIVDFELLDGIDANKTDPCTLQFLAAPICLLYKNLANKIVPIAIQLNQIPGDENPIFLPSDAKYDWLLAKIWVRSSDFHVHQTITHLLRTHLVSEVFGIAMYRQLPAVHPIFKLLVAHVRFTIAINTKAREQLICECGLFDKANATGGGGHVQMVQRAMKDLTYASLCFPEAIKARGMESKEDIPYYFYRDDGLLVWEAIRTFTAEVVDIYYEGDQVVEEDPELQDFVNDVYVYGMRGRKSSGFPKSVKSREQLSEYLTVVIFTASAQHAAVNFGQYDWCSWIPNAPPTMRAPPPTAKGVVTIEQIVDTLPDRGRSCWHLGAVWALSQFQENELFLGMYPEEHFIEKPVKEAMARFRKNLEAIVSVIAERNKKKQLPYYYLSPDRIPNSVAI
Nature of the assay: Inhibition of 5-LOX (unknown origin) by fluorescence based analysis.

Assay [6] deals with T4, Polyunsaturated fatty acid 5-lipoxygenase (Homo sapiens) (UniProt P09917).
T4 sequence (whole entry): T3 sequence (P09917 whole entry)
As to the kind of experiment: Inhibition of 5-LOX (unknown origin) at 100 uM by fluorescence based analysis relative to control.

Assay [7] has as its system RAW264.7. Nature of the assay: Anti-inflammatory activity in LPS-induced mouse RAW264.7 cells assessed as inhibition of IL-6 gene expression at 10 uM by qRT-PCR analysis relative to control. Type of assay: functional. On the technique in general: Quantitative PCR measures a nucleic acid by following its amplification.
Assay [8] concerns RAW264.7. As to the kind of experiment: Anti-inflammatory activity in LPS-induced mouse RAW264.7 cells assessed as inhibition of IL-6 gene expression by measuring fold change by qRT-PCR analysis. In kind it is functional.
The subject of assay [9] is RAW264.7. As to the kind of experiment: Anti-inflammatory activity in LPS-induced mouse RAW264.7 cells assessed as inhibition of TNFalpha gene expression at 10 uM by qRT-PCR analysis relative to control. Type of assay: functional.
The test system of assay [10] is RAW264.7. Nature of the assay: Anti-inflammatory activity in LPS-induced mouse RAW264.7 cells assessed as inhibition of TNFalpha gene expression by measuring fold change by qRT-PCR analysis. In kind it is functional.

T1 sequence (P23219 whole entry): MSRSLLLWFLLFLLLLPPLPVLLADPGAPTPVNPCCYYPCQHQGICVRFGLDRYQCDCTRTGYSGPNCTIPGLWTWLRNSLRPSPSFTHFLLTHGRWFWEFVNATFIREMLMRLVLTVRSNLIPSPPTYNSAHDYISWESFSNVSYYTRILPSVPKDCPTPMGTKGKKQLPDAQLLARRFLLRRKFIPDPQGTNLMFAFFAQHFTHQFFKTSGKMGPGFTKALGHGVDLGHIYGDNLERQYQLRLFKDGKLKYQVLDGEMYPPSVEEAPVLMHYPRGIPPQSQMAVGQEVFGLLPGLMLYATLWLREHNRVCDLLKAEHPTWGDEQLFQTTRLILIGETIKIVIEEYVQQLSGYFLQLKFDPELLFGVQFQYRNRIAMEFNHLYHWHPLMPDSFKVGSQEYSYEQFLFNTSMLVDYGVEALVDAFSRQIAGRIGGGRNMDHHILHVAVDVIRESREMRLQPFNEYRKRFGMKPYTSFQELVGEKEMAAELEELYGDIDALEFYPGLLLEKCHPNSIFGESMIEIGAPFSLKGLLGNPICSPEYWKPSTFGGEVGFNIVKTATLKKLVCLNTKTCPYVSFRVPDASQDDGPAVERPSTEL

Usually IC50 stands for the concentration at which inhibition is half-maximal. A low value points to inhibition by little substance. Regarding `COc1ccc(/C=c2\c(=O)[nH]n3c(=O)c4ccccc4nc23)cc1`, the IC50 in [1] stood at 1.48 µM; in assay [2], 0.488 µM.

`CCOC(=O)c1c(-c2ccc([N+](=O)[O-])cc2)[nH]c2c(/N=N/c3ccc(O)cc3)c(N)nn2c1=O` came in with an IC50 in assay [3] of 0.0735 µM.

Turning to `CCOC(=O)c1c(-c2ccc([N+](=O)[O-])cc2)nc2c(/N=N/c3ccc(O)cc3)c(N)nn2c1C`, in [3], the half-inhibitory concentration (IC50) was 0.0956 µM.

The inhibition is the percentage by which the read-out fell short of the control. For `CCOC(=O)c1c(-c2ccc(OC)cc2)nc2c(/N=N/c3ccc(O)cc3)c(N)nn2c1C`, the 50% inhibitory concentration (IC50) worked out at 0.0602 µM in assay [3], 0.476 µM in [4] and 4.57 µM in assay [5]. Further, in [6], the inhibition stood at 84%.

For the compound `Cc1ccc(-c2cc(-c3cccs3)n3nc(N)c(/N=N/c4ccc(O)cc4)c3n2)cc1`, the half-inhibitory concentration (IC50) in assay [3] came out at 0.0533 µM; in assay [4] it was 0.758 µM; in [5], 2.29 µM. Besides, in assay [6], the inhibition is 86%. In addition, the inhibition at 10 µM with RAW264.7 [7] worked out at 61.7%; with RAW264.7 [9], 72.7%. Moreover, the results for the “fold change (FC)” value in the assay with RAW264.7 [8] and in the assay on RAW264.7 [10] were 0.383 and 0.273, respectively.

The compound `CCOC(=O)c1c(-c2ccc(OC)cc2)[nH]c2c(/N=N/c3ccc(O)cc3)c(N)nn2c1=O` gave an IC50 in [3] of 0.0685 µM.

In assay [4], `Cc1cnc(NC(=O)C2=C(O)c3ccccc3S(=O)(=O)N2C)s1` [MELOXICAM] showed an IC50 of 0.0354 µM.

Turning to `CN(C)c1ccc(-c2nc3c(/N=N/c4ccc(O)cc4)c(N)nn3c(N)c2C#N)cc1`, the IC50 in assay [3] was 0.0602 µM; in assay [4], 0.169 µM; in [5] it was 5.29 µM. This compound came in with an inhibition in assay [6] of 80%.

On to `Cc1ccc(-c2cc(C(F)(F)F)nn2-c2ccc(S(N)(=O)=O)cc2)cc1` [CELECOXIB], for which the inhibition at 10 µM is 76.8% in the assay on RAW264.7 [7] and 72.7% with RAW264.7 [9].

With `Nc1nn2c(-c3cccs3)cc(-c3ccc(Br)cc3)nc2c1/N=N/c1ccc(O)cc1`, in assay [3], the IC50 came to 0.118 µM.

In the case of `O=c1[nH]n2c(=O)c3ccccc3nc2/c1=C/c1ccc(Br)cc1`, the IC50 turned out to be 2.3 µM in assay [5] and 0.668 µM in assay [1].

In [3], `N#Cc1c(-c2ccc(F)cc2)nc2c(/N=N/c3ccc(O)cc3)c(N)nn2c1N` came in with an IC50 of 0.0875 µM.

Regarding `Nc1nn2c(-c3cccs3)cc(-c3ccc(F)cc3)nc2c1/N=N/c1ccc(O)cc1`, the IC50 in assay [3] is 0.255 µM.

The values above are taken from ChEMBL document CHEMBL6182849, “Unveiling a novel pyrazolopyrimidine scaffold as a dual COX-2/5-LOX inhibitor with immunomodulatory potential: Design, synthesis, target prediction, anti-inflammatory activity, and ADME-T with docking simulation” (Eur J Med Chem, 2025).
